Entries after “also recorded” stand apart in the source; their conditions may differ.
Tests used:
Staphylococcus aureus [1] = experiment: Antimicrobial activity test (JIS L 1902:2015 / ISO 20743) on standard cloth; type: cell-based; conditions: cultured 37° C. for 18 to 24 hours
Source text: The antimicrobial activity of the protamine component can be evaluated based on an antimicrobial activity value described in “JIS L 1902:2015 Textiles—Determination of antibacterial activity and efficacy of textile products” (ISO 20743), and when a target material has an antimicrobial activity value of 2.0 or more, it can be determined to have the antimicrobial activity.
A standard cloth was cut into an appropriate size with a mass of 0.40 g±0.05 g. Sterile water (a control sample) and each of the test sample solutions (protamine hydrochloride: manufactured by Maruha Nichiro Corporation, protamine sulfate: manufactured by Maruha Nichiro Corporation, silver sulfate: manufactured by Wako Pure Chemical Industries Ltd.) were prepared and filtered, separately.
A Staphylococcus aureus suspension was inoculated by 0.2 mL each in separate several portions on each test piece. Immediately after the inoculation, 20 mL of a saline for washing out was added to some vials for washing out Staphylococcus aureus cells, and then a viable cell count was measured. The rest of the vials without washing-out was cultured at 37° C.±2° C. for 18 to 24 hours. After the cultivation, 20 mL of a saline for washing out was added to each vial for washing out Staphylococcus aureus cells, and then a viable cell count was measured. In accordance with the formula (1), an antimicrobial activity value was calculated, and a sample having an antibacterial activity value of 2.0 or more was determined as having the antimicrobial activity.
A=(log Ct−log C0)−(log Tt−log T0) Formula (1)
A: antibacterial activity value log Ct: arithmetic average common logarithm of viable cell count in a control sample obtained after cultivation for 18 to 24 hours log C0: arithmetic average common logarithm of viable cell count in a control sample obtained immediately after inoculation log Tt: arithmetic average common logarithm of viable cell count in a test sample obtained after cultivation for 18 to 24 hours log T0: arithmetic average common logarithm of viable cell count in a test sample obtained immediately after inoculation

Staphylococcus aureus [2] = experiment: Examination of sterilization treatment: antimicrobial activity test after EOG or γ-ray sterilization; type: cell-based; conditions: 1.25% by mass
Procedure: A protamine hydrochloride powder and a protamine sulfate powder were respectively enclosed in sterilization bags (roll bag for IDS, manufactured by Hogy Medical Co., Ltd.). For a control group (not treated), the sterilization treatment was not performed, and the rest was subjected to the EOG sterilization (EOG concentration: 20%, sterilization time: 4 hours, temperature: 55° C.) and the γ-ray sterilization (30 kGy). The standard cloth was cut into an appropriate size with a mass of 0.40 g±0.05 g. Each of the test powders (protamine hydrochloride and protamine sulfate) was dissolved in sterile water, separately, and then the resultant was filtered. […] A Staphylococcus aureus suspension was inoculated by 0.2 mL each in separate several portions on each test piece. Immediately after the inoculation, 20 mL of a saline for washing out was added to some vials for washing out Staphylococcus aureus cells, and then a viable cell count was measured. The rest of the vials without washing-out was cultured at 37° C.±2° C. for 18 to 24 hours. After the cultivation, 20 mL of a saline for washing out was added to each vial for washing out Staphylococcus aureus cells, and then a viable cell count was measured.

[3] = system: full-thickness skin incision wound; experiment: Healing test, full-thickness skin incision wound; type: in vivo, rat; conditions: 1.25% by mass on substrate, changed daily, day 1 to 4 of observation, compared with control group and silver sulfate group
Procedure: A substrate (Jintan Medicare sterile pad T, manufactured by Morishita Jintan Co., Ltd.) was prepared, and each of filtered test solutions (protamine hydrochloride, protamine sulfate and silver sulfate) was homogeneously applied to each substrate to obtain a solid content of the active ingredient of 1.25% by mass. In a flank region on either side of an eight-week-old BrlHan: WIST@Jcl (GALAS) rat (four rats used in each test group), a full-thickness skin incision wound with a size of 2.5 cm×2.5 cm was created.
The substrate and the dressing were changed once every day, the incision wound was photographed with a digital camera at the time of the change, and then, an area of the wound was obtained by using image analysis software (Image J, National Institutes of Health, USA). Assuming that the area of the wound on the day of creating the wound (day 0 of observation) was 100%, an area ratio (%) of the wound on each observation date was obtained.

[4] = 0.125% by mass on standard cloth
[5] = 1.25% by mass on standard cloth
[6] = EOG Sterilization (20%, 4 hours, 55° C.)

| Compound | Antibacterial Activity Value (Staphylococcus aureus [1]; [4]) | Antibacterial Activity Value (Staphylococcus aureus [1]; [5]) | Antibacterial Activity Value (Staphylococcus aureus [2]; [6]) | Antibacterial Activity Value (Staphylococcus aureus [2]; Not Treated) | Antibacterial Activity Value (Staphylococcus aureus [2]; γ-ray Sterilization (30 kGy)) | wound healing accelerating effect (area ratio of the wound) ([3]; hydrochloride) | wound healing accelerating effect (area ratio of the wound) [3] |
| --- | --- | --- | --- | --- | --- | --- | --- |
| protamine hydrochloride | ≥2.0 | ≥2.0 | ≥2.0 | ≥2.0 | ≥2.0 | exhibit a wound healing accelerating effect; also recorded: an effect of accelerating wound healing was observed | – |
| protamine sulfate | ≥2.0 | ≥2.0 | ≥2.0 | ≥2.0 | ≥2.0 | – | exhibit a wound healing accelerating effect; also recorded: an effect of accelerating wound healing was observed |
| O=S(=O)([O-])[O-].[Ag+].[Ag+] [Silver Sulfate, silver sulfate, reference compound] | ≥2.0 | ≥2.0 | – | – | – | – | the wound healing accelerating effect was found in protamine hydrochloride and protamine sulfate alone |
